# Article PMC3697084 (Methods in enzymology, 2010)
# Target: T1, human red cone opsin (Homo sapiens, UniProt P04000)
# T1 sequence (P04000 1-364): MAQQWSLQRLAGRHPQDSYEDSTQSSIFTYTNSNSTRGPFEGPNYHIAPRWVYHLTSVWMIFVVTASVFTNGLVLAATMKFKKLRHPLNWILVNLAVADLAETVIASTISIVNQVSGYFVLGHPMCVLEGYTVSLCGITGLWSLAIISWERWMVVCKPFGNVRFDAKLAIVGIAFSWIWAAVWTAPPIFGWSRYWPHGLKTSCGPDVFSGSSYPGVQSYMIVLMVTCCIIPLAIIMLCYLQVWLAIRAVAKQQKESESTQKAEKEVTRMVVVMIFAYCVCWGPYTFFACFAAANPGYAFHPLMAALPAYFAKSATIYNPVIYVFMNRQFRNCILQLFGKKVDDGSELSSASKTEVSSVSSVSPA
# Assay: radioactive GTPγS filter binding, transducin activation
# Type: biochemical
# Details: COS-1 membranes, bovine rod transducin, pH 6.4
smiles,measurement,value
CC(=O)/C=C/C1=C(C)CCCC1(C)C [β-ionone],inverse agonist,these compounds were found to be inverse agonists to the red cone opsin
